Laboratory results: patent US8013156B2 (Exelixis, Inc., priority 2003, dated 2011)

The compounds below were run against Tie-2 (Homo sapiens, UniProt Q02763) (assay: Tie-2 tyrosine kinase activity assay (luciferase/luciferin ATP consumption with pEY substrate, or 33P-ATP incorporation)). Conditions: human enzyme Tie-2.
Type: biochemical
Method: One measure of inhibition is Ki. […] The Ki for a compound is determined from the IC50 based on three assumptions. First, only one compound molecule binds to the enzyme and there is no cooperativity. […] Third, the enzymatic rate of the enzyme-inhibitor complex is zero. The rate data (i.e. compound concentration) are fitted to the equation:
[formula] where V is the observed rate, Vmax, is the rate of the free enzyme, I0 is the inhibitor concentration, E0 is the enzyme concentration, and Kd is the dissociation constant of the enzyme-inhibitor complex.
Tyrosine kinase activity is determined by 1) measurement of kinase-dependent ATP consumption by in the presence of a generic substrate such as […], tyrosine (pEY), by luciferase/luciferin-mediated chemiluminescence or; 2) incorporation of radioactive phosphate derived from ^33P-ATP into a generic substrate which has been adsorbed onto the well surface of polystyrene microtiter plates. Phosphorylated substrate products are quantified by scintillation spectrometry.
Inhibition is indicated as IC50 with following key: A=IC50 less than 50 nM, B=IC50 greater than 50 nM, but less than or equal to 1000 nM, C=IC50 greater than 1000 nM, but less than 10,000 nM, D=IC50 10,000 nM or greater, and “-”=no data available. The abbreviation for human enzyme, Tie-2, is defined as tyrosine kinase with immunoglobulin and EGF repeats.

Sequence of Tie-2 (Q02763 23-1124): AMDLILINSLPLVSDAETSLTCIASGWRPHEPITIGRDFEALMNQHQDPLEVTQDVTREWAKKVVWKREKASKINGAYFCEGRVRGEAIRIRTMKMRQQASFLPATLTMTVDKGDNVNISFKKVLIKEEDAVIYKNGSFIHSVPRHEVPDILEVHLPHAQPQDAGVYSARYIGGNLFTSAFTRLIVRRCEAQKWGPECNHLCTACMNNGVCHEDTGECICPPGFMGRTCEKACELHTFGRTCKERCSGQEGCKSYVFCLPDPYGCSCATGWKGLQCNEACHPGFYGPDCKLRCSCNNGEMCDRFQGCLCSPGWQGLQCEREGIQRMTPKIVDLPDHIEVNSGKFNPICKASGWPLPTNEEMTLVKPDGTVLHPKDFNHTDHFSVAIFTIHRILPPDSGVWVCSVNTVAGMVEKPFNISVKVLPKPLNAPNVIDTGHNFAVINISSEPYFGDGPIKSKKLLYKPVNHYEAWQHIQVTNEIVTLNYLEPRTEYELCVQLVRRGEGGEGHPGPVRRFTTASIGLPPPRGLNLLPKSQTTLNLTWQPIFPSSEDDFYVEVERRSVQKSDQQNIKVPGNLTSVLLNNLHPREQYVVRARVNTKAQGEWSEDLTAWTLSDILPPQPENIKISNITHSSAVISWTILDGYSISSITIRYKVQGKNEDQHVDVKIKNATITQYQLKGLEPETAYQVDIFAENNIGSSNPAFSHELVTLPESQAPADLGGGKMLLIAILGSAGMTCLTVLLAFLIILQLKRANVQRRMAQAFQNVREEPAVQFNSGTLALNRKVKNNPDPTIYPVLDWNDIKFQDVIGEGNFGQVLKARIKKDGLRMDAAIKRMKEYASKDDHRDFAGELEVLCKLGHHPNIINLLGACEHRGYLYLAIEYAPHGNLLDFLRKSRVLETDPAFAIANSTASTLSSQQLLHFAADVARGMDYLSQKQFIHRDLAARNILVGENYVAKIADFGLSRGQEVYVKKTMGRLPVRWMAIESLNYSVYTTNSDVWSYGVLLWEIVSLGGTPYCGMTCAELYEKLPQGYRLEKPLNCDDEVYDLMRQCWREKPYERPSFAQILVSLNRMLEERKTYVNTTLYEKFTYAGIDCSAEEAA

SMILES	IC50 [µM]
CC1CN(c2nsnc2OCc2ccncc2)CCN1C(=O)Nc1cccc(C(F)(F)F)c1 (stereo not shown) [Example 41, 2-methyl-4-{4-[(pyridin-4-ylmethyl)oxy]-1,2,5-thiadiazol-3-yl}-N-[3-(trifluoromethyl)phenyl]piperazine-1-carboxamide]	0.05 to 1
O=C(Nc1cc(C(F)(F)F)cc(C(F)(F)F)c1)N1CCN(c2nsnc2NCc2ccncc2)CC1 [Example 44, N-[3,5-bis(trifluoromethyl)phenyl]-4-{4-[(pyridin-4-ylmethyl)amino]-1,2,5-thiadiazol-3-yl}piperazine-1-carboxamide]	1 to 10
O=C(Nc1cccc(C(F)(F)F)c1)N1CCCN(c2nsnc2OCc2ccncc2)CC1 [Example 45, 4-{4-[(pyridin-4-ylmethyl)oxy]-1,2,5-thiadiazol-3-yl}-N-[3-(trifluoromethyl)phenyl]-1,4-diazepane-1-carboxamide]	1 to 10
O=C(Nc1cccc(C(F)(F)F)c1)NC1CCN(c2nsnc2OCc2ccncc2)C1 (stereo not shown) [Example 49, N-(1-{4-[(pyridin-4-ylmethyl)oxy]-1,2,5-thiadiazol-3-yl}pyrrolidin-3-yl)-N′-[3-(trifluoromethyl)phenyl]urea]	1 to 10
CC(C)c1ccc(NC(=O)N2CCN(c3nsnc3OCc3ccncc3)CC2C)cc1 (stereo not shown) [Example 50, 2-methyl-N-[4-(1-methylethyl)phenyl]-4-{4-[(pyridin-4-ylmethyl)oxy]-1,2,5-thiadiazol-3-yl}piperazine-1-carboxamide]	1 to 10
CSc1cccc(NC(=O)N2CCN(c3nsnc3OCc3ccncc3)CC2C)c1 (stereo not shown) [Example 51, 2-methyl-N-[3-(methylthio)phenyl]-4-{4-[(pyridin-4-ylmethyl)oxy]-1,2,5-thiadiazol-3-yl}piperazine-1-carboxamide]	0.05 to 1
C[C@@H]1CN(c2nsnc2OCc2ccncc2)CCN1C(=O)Nc1cc(C(F)(F)F)cc(C(F)(F)F)c1 [Example 52, (2R)-N-[3,5-bis(trifluoromethyl)phenyl]-2-methyl-4-{4-[(pyridin-4-ylmethyl)oxy]-1,2,5-thiadiazol-3-yl}piperazine-1-carboxamide]	0.05 to 1
C[C@@H]1CN(c2nsnc2OCc2ccncc2)CCN1C(=O)Nc1cccc(C(F)(F)F)c1 [Example 53, (2R)-2-methyl-4-{4-[(pyridin-4-ylmethyl)oxy]-1,2,5-thiadiazol-3-yl}-N-[3-(trifluoromethyl)phenyl]piperazine-1-carboxamide]	0.05 to 1
C[C@H]1CN(c2nsnc2OCc2ccncc2)CCN1C(=O)Nc1cc(C(F)(F)F)cc(C(F)(F)F)c1 [Example 57, (2S)-N-[3,5-bis(trifluoromethyl)phenyl]-2-methyl-4-{4-[(pyridin-4-ylmethyl)oxy]-1,2,5-thiadiazol-3-yl}piperazine-1-carboxamide]	0.05 to 1
C[C@H]1CN(c2nsnc2OCc2ccncc2)CCN1C(=O)Nc1cccc(C(F)(F)F)c1 [Example 58, (2S)-2-methyl-4-{4-[(pyridin-4-ylmethyl)oxy]-1,2,5-thiadiazol-3-yl}-N-[3-(trifluoromethyl)phenyl]piperazine-1-carboxamide]	0.05 to 1
O=C(Cc1cc(C(F)(F)F)ccc1C(F)(F)F)NC1CCN(c2nsnc2OCc2ccncc2)C1 (stereo not shown) [Example 60, 2-[2,5-bis(trifluoromethyl)phenyl]-N-(1-{4-[(pyridin-4-ylmethyl)oxy]-1,2,5-thiadiazol-3-yl}pyrrolidin-3-yl)acetamide]	0.05 to 1
CC1CN(c2nsnc2OCc2ccncc2)CCN1C(=O)Cc1cc(C(F)(F)F)ccc1C(F)(F)F (stereo not shown) [Example 61, 1-{[2,5-bis(trifluoromethyl)phenyl]acetyl}-2-methyl-4-{4-[(pyridin-4-ylmethyl)oxy]-1,2,5-thiadiazol-3-yl}piperazine]	0.05 to 1
CC1CN(c2nccnc2OCc2ccncc2)CCN1C(=O)Nc1cc(C(F)(F)F)cc(C(F)(F)F)c1 (stereo not shown) [Example 62, N-[3,5-bis(trifluoromethyl)phenyl]-2-methyl-4-{3-[(pyridin-4-ylmethyl)oxy]pyrazin-2-yl}piperazine-1-carboxamide]	< 0.05
CC1CN(c2nccnc2OCc2ccncc2)CCN1C(=O)Nc1cccc(C(F)(F)F)c1 (stereo not shown) [Example 63, 2-methyl-4-{3-[(pyridin-4-ylmethyl)oxy]pyrazin-2-yl}-N-[3-(trifluoromethyl)phenyl]piperazine-1-carboxamide]	0.05 to 1
CC1CN(c2nccnc2OCc2ccncc2)CC(C)N1C(=O)Nc1cc(C(F)(F)F)cc(C(F)(F)F)c1 (stereo not shown) [Example 64, N-[3,5-bis(trifluoromethyl)phenyl]-2,6-dimethyl-4-{3-[(pyridin-4-ylmethyl)oxy]pyrazin-2-yl}piperazine-1-carboxamide]	0.05 to 1
CC1CN(c2nccnc2OCc2ccncc2)CC(C)N1C(=O)Nc1cccc(C(F)(F)F)c1 (stereo not shown) [Example 65, 2,6-dimethyl-4-{3-[(pyridin-4-ylmethyl)oxy]pyrazin-2-yl}-N-[3-(trifluoromethyl)phenyl]piperazine-1-carboxamide]	0.05 to 1

SMILES	IC50 [µM]
O=C(Nc1cccc(C(F)(F)F)c1)NC1CCN(c2nccnc2OCc2ccncc2)C1 (stereo not shown) [Example 66, N-(1-{3-[(pyridin-4-ylmethyl)oxy]pyrazin-2-yl}pyrrolidin-3-yl)-N′-[3-(trifluoromethyl)phenyl]urea]	0.05 to 1
O=C(Nc1cc(C(F)(F)F)cc(C(F)(F)F)c1)NC1CCN(c2nccnc2OCc2ccncc2)C1 (stereo not shown) [Example 67, N-[3,5-bis(trifluoromethyl)phenyl]-N′-(1-{3-[(pyridin-4-ylmethyl)oxy]pyrazin-2-yl}pyrrolidin-3-yl)urea]	0.05 to 1
CC1CN(c2nsnc2OCc2ccncc2)CC(C)N1C(=O)Nc1cc(C(F)(F)F)cc(C(F)(F)F)c1 (stereo not shown) [Example 68, N-[3,5-bis(trifluoromethyl)phenyl]-2,6-dimethyl-4-{4-[(pyridin-4-ylmethyl)oxy]-1,2,5-thiadiazol-3-yl}piperazine-1-carboxamide]	0.05 to 1
CC1CN(c2nsnc2OCc2ccncc2)CC(C)N1C(=O)Nc1cccc(C(F)(F)F)c1 (stereo not shown) [Example 69, 2,6-dimethyl-4-{4-[(pyridin-4-ylmethyl)oxy]-1,2,5-thiadiazol-3-yl}-N-[3-(trifluoromethyl)phenyl]piperazine-1-carboxamide]	0.05 to 1
CC1CN(C(=O)Nc2cc(C(F)(F)F)cc(C(F)(F)F)c2)CCN1c1nccnc1OCc1ccncc1 (stereo not shown) [Example 70, N-[3,5-bis(trifluoromethyl)phenyl]-3-methyl-4-{3-[(pyridin-4-ylmethyl)oxy]pyrazin-2-yl}piperazine-1-carboxamide]	< 0.05
CC1CN(C(=O)Nc2cccc(C(F)(F)F)c2)CCN1c1nccnc1OCc1ccncc1 (stereo not shown) [Example 71, 3-methyl-4-{3-[(pyridin-4-ylmethyl)oxy]pyrazin-2-yl}-N-[3-(trifluoromethyl)phenyl]piperazine-1-carboxamide]	0.05 to 1
O=C(Nc1cc(C(F)(F)F)cc(C(F)(F)F)c1)N1CCN(c2ccccc2OCc2ccncc2)CC1 [Example 72, N-[3,5-bis(trifluoromethyl)phenyl]-4-{2-[(pyridin-4-ylmethyl)oxy]phenyl}piperazine-1-carboxamide]	< 0.05
O=C(Nc1cccc(C(F)(F)F)c1)N1CCN(c2ccccc2OCc2ccncc2)CC1 [Example 73, 4-{2-[(pyridin-4-ylmethyl)oxy]phenyl}-N-[3-(trifluoromethyl)phenyl]piperazine-1-carboxamide]	0.05 to 1
CC1CN(c2nc3ccccc3nc2OCc2ccncc2)CCN1C(=O)Nc1cc(C(F)(F)F)cc(C(F)(F)F)c1 (stereo not shown) [Example 74, N-[3,5-bis(trifluoromethyl)phenyl]-2-methyl-4-{3-[(pyridin-4-ylmethyl)oxy]quinoxalin-2-yl}piperazine-1-carboxamide]	0.05 to 1
O=C(Nc1cc(C(F)(F)F)cc(C(F)(F)F)c1)N1CCCN(c2nccnc2OCc2ccncc2)CC1 [Example 75, N-[3,5-bis(trifluoromethyl)phenyl]-4-{3-[(pyridin-4-ylmethyl)oxy]pyrazin-2-yl}-1,4-diazepane-1-carboxamide]	0.05 to 1
CC1CN(c2nc3ccccc3nc2OCc2ccncc2)CCN1C(=O)Nc1cccc(C(F)(F)F)c1 (stereo not shown) [Example 76, 2-methyl-4-{3-[(pyridin-4-ylmethyl)oxy]quinoxalin-2-yl}-N-[3-(trifluoromethyl)phenyl]piperazine-1-carboxamide]	0.05 to 1
O=C(Nc1cccc(C(F)(F)F)c1)N1CCCN(c2nccnc2OCc2ccncc2)CC1 [Example 77, 4-{3-[(pyridin-4-ylmethyl)oxy]pyrazin-2-yl}-N-[3-(trifluoromethyl)phenyl]-1,4-diazepane-1-carboxamide]	0.05 to 1
CC1CN(c2nccnc2OCc2ccncc2)C(C)CN1C(=O)Nc1cc(C(F)(F)F)cc(C(F)(F)F)c1 (stereo not shown) [Example 78, N-[3,5-bis(trifluoromethyl)phenyl]-2,5-dimethyl-4-{3-[(pyridin-4-ylmethyl)oxy]pyrazin-2-yl}piperazine-1-carboxamide]	< 0.05
CC1CN(c2nccnc2OCc2ccncc2)C(C)CN1C(=O)Nc1cccc(C(F)(F)F)c1 (stereo not shown) [Example 79, 2,5-dimethyl-4-{3-[(pyridin-4-ylmethyl)oxy]pyrazin-2-yl}-N-[3-(trifluoromethyl)phenyl]piperazine-1-carboxamide]	0.05 to 1
C[C@H]1CN(c2nccnc2OCc2ccncc2)CCN1C(=O)Nc1cc(C(F)(F)F)cc(C(F)(F)F)c1 [Example 80, (2S)-N-[3,5-bis(trifluoromethyl)phenyl]-2-methyl-4-{3-[(pyridin-4-ylmethyl)oxy]pyrazin-2-yl}piperazine-1-carboxamide]	< 0.05
